# Results taken from US10889555B2, “Sulfonamide compound or salt thereof” (Taiho Pharmaceutical Co., Ltd., priority 2016, dated 2021).
# System: HCC 1806 cells
# Assay: Cell proliferation inhibitory effect on human breast cancer cell line (crystal violet, 72 hours)
# Format: cell-based
# Conditions: Homo sapiens, HCC1806, 72 h, read-out: Cell growth suppression IC50
# Description: Human derived breast cancer cell line HCC 1806 cells were daily passaged at a cell density not exceeding 80% in ATCC recommended Roswell Park Memorial Institute medium (RPMI-1640) containing 10% fetal bovine serum (FBS). In order to start the test of cell proliferation inhibitory activity, HCC 1806 cells were suspended in the above medium, after seeing at 180 μL in each well of a 96-well flat bottom plate so that the number of cells per well was 2,000, the cells were cultured at 37° C. for 1 day in an incubator containing 5% carbon dioxide gas. On the next day, the test compound was dissolved in DMSO, and 20 μL of a drug additive solution diluted serially with distilled water to 10 times of the final concentration was added to each well of the culture plate of the cells, and the cells were cultured at 37° C. for 72 hours in an incubator containing 5% carbon dioxide gas. After culturing for 72 hours, 20 μL of glutaraldehyde was added to each well and allowed to stand for 30 minutes, then the plate was washed 10 times with water and was dried. 100 μL of a stain solution (0.05% crystal violet in a 20% methanol solution) was added to each well and allowed to stand for 30 minutes, then the plate was washed 10 times with water and was dried. 100 μL of an extract solution (0.1 N NaH2PO4: 100% ethanol=1:1) was added to each well and mixed, and the mixture was measured at a wavelength of 540 nm using a plate reader (MTP-450 manufactured by Corona Electric Co., Ltd.). The growth inhibition rate was calculated from the following formula, and the concentration (IC50 (μM)) of a test compound inhibiting 50% was determined. Growth inhibition rate (%)={(C−B)−(T−B)}/(C−B)×100
# T: Absorbance of well to which test compound was added
# C: Absorbance of wells to which no test compound was added
# B: Absorbance of wells to which no cell suspension was added
row,IC50 [nM],SMILES
1,400,"COC(=O)c1nc(S(=O)(=O)N[C@H](c2n[nH]c(=O)o2)[C@H](C)c2c(F)ccc(C)c2C)ccc1Cl [Example 109, methyl 3-chloro-6-(N-((1S,2R)-2-(6-fluoro-2,3-dimethylphenyl)-1-(5-oxo-4,5-dihydro-1,3,4-oxadiazol-2-yl)propyl)sulfamoyl)picolinate]"
2,600,"Cc1ccc(F)c([C@@H](C)[C@H](NS(=O)(=O)c2ccc(Cl)c(C(=O)N3CCOCC3)n2)c2n[nH]c(=O)o2)c1C [Example 113, 5-chloro-N-((1S,2R)-2-(6-fluoro-2,3-dimethylphenyl)-1-(5-oxo-4,5-dihydro-1,3,4-oxadiazol-2-yl)propyl)-6-(morpholine-4-carbonyl)pyridine-2-sulfonamide]"
3,370,"Cc1ccc(F)c([C@@H](C)[C@H](NS(=O)(=O)c2ccc(Cl)c(C(=O)N3CCCC3)n2)c2n[nH]c(=O)o2)c1C [Example 114, 5-chloro-N-((1S,2R) 2-(6-fluoro-2,3-dimethylphenyl)-1-(5-oxo-4,5-dihydro-1,3,4-oxadiazol-2-yl)propyl)-6-(pyrrolidine-1-carbonyl)pyridine-2-sulfonamide]"
4,310,"Cc1ccc(F)c([C@@H](C)[C@H](NS(=O)(=O)c2ccc(Cl)c(C(=O)N3CC4CCC(C3)O4)n2)c2n[nH]c(=O)o2)c1C [Example 117, 6-(8-oxa-3-azabicyclo[3.2.1]octane-3-carbonyl)-5-chloro-N-((1S,2R)-2-(6-fluoro-2,3-dimethylphenyl)-1-(5-oxo-4,5 dihydro-1,3,4-oxadiazol-2-yl)propyl)pyridine-2-sulfonamide]"
5,170,"CC(=O)OC1(C(F)(F)F)CCOc2c(S(=O)(=O)N[C@H](c3n[nH]c(=O)o3)[C@H](C)c3c(F)ccc(C)c3C)ccc(Cl)c21 (stereo partly drawn) [Example 123, 5-chloro-8-(N-((1S,2R)-2-(6-fluoro-2,3-dimethylphenyl)-1-(5-oxo-4,5-dihydro-1,3,4-oxadiazol-2-yl)propyl)sulfamoyl)-4-(trifluoromethyl)chroman-4-yl acetate]"
6,80,"[2H]C([2H])([2H])C1(OC(C)=O)CCOc2c(S(=O)(=O)N[C@H](c3n[nH]c(=O)o3)[C@H](C)c3c(F)ccc(C)c3C)ccc(Cl)c21 (stereo partly drawn) [Example 129, 5-Chloro-8-(N-((1S,2R)-2-(6-fluoro-2,3-dimethylphenyl)-1-(5-oxo-4,5-dihydro-1,3,4-oxadiazol-2-yl)propyl)sulfamoyl)-4-methyl-d3-chroman-4-yl Acetate]"
7,960,"COc1c(S(=O)(=O)N[C@H](c2n[nH]c(=O)o2)[C@H](C)c2c(F)ccc(C)c2C)ccc(Cl)c1C(C)OC(C)=O (stereo partly drawn) [Example 144, 1-(6-chloro-3-(N-((1S,2R)-2-(6-fluoro-2,3-dimethylphenyl)-1-(5-oxo-4,5-dihydro-1,3,4-oxadiazol-2-yl)propyl)sulfamoyl)-2-methoxyphenyl)ethyl acetate]"
8,830,"Cc1ccc(F)c([C@@H](C)[C@H](NS(=O)(=O)c2ccc(Cl)cc2OC(F)F)c2n[nH]c(=O)o2)c1C [Example 146, 4-chloro-2-(difluoromethoxy)-N-((1S,2R)-2-(6-fluoro-2,3-dimethylphenyl)-1-(5-oxo-4,5-dihydro-1,3,4-oxadiazol-2-yl)propyl)benzenesulfonamide]"
9,650,"CC(=O)c1cc(Cl)ccc1S(=O)(=O)N[C@H](c1n[nH]c(=O)o1)[C@H](C)c1c(F)ccc(C)c1C [Example 147, 2-acetyl-4-chloro-N-((1S,2R)-2-(6-fluoro-2,3-dimethylphenyl)-1-(5 oxo-4,5-dihydro-1,3,4-oxadiazol-2-yl)propyl)benzenesulfonamide]"
10,400,COc1nc(Cl)ccc1S(=O)(=O)N[C@H](c1n[nH]c(=O)o1)[C@H](C)c1c(F)ccc(C)c1C [Example 148]
11,910,"Cc1ccc(F)c([C@@H](C)[C@H](NS(=O)(=O)c2ccc(Cl)c3cccnc23)c2n[nH]c(=O)o2)c1C [Example 153, 5-chloro-N-((1S,2R)-2-(6-fluoro-2,3-dimethylphenyl)-1-(5-oxo-4,5-dihydro-1,3,4-oxadiazol-2-yl)propyl)quinoline-8-sulfonamide]"
12,870,"Cc1ccc(F)c([C@@H](C)[C@H](NS(=O)(=O)c2ccc(Cl)c(C(=O)N3CCC4(CC3)COC4)n2)c2n[nH]c(=O)o2)c1C [Example 156, 5-chloro-N-((1S,2R)-2-(6-fluoro-2,3-dimethylphenyl)-1-(5-oxo-4,5-dihydro-1,3,4-oxadiazol-2-yl)propyl)-6-(2-oxa-7-azaspiro[3.5]nonane-7-carbonyl)pyridine-2-sulfonamide]"
13,370,"CC(=O)NC1CCOc2c(S(=O)(=O)N[C@H](c3n[nH]c(=O)o3)[C@H](C)c3c(F)ccc(C)c3C)ccc(Cl)c21 (stereo partly drawn) [Example 157, N-(5-chloro-8-(N-((1S,2R)-2-(6-fluoro-2,3-dimethylphenyl)-1-(5-oxo-4,5-dihydro-1,3,4-oxadiazol-2-yl)propyl)sulfamoyl)chroman-4-yl)acetamide]"
14,140,"CC(=O)OC1(C)CCOc2c(S(=O)(=O)N[C@H](c3n[nH]c(=O)o3)[C@H](C)c3c(F)ccc(Br)c3C)ccc(Cl)c21 (stereo partly drawn) [Example 167, 8-(N-((1S,2R)-2-(3-bromo-6-fluoro-2-methylphenyl)-1-(5-oxo-4,5-dihydro-1,3,4-oxadiazol-2-yl)propyl)sulfamoyl)-5-chloro-4-methylchroman-4-yl-acetate]"
15,640,"Cc1ccc(F)c([C@@H](C)[C@H](NS(=O)(=O)c2ccc(F)c(C(C)(C)O)c2F)c2n[nH]c(=O)o2)c1C [Example 186, 2,4-difluoro-N-((1S,2R)-2-(6-fluoro-2,3-dimethylphenyl)-1-(5-oxo-4,5-dihydro-1,3,4-oxadiazol-2-yl)propyl)-3-(2-hydroxypropan-2-yl)benzenesulfonamide]"
16,110,"Cc1ccc(F)c([C@@H](C)[C@H](NS(=O)(=O)c2ccc(Cl)c(C(C)(C)O)n2)c2n[nH]c(=O)o2)c1C [Example 193, 5-chloro-N-((1S,2R)-2-(6-fluoro-2,3-dimethylphenyl)-1-(5-oxo-4,5-dihydro-1,3,4-oxadiazol-2-yl)propyl)-6-(2-hydroxypropan-2-yl)pyridine-2-sulfonamide]"
17,320,"Cc1ccc(F)c([C@@H](C)[C@H](NS(=O)(=O)c2cc(C(C)(C)O)c(F)cc2C(N)=O)c2n[nH]c(=O)o2)c1C [Example 196, 5-fluoro-2-(N-((1S,2R)-2-(6-fluoro-2,3-dimethylphenyl)-1-(5-oxo-4,5-dihydro-1,3,4-oxadiazol-2-yl)propyl)sulfamoyl)-4-(2-hydroxypropan-2-yl)benzamide]"
18,410,"Cc1ccc(F)c([C@@H](C)[C@H](NS(=O)(=O)c2cc(C(C)(C)O)ccc2C(N)=O)c2n[nH]c(=O)o2)c1C [Example 197, 2-(N-((1S,2R)-2-(6-fluoro-2,3-dimethylphenyl)-1-(5-oxo-4,5-dihydro-1,3,4-oxadiazol-2-yl)propyl)sulfamoyl)-4-(2-hydroxypropan-2-yl)benzamide]"
19,50,"Cc1ccc(F)c([C@@H](C)[C@H](NS(=O)(=O)c2cc(C(C)(C)O)c(Cl)cc2C(N)=O)c2n[nH]c(=O)o2)c1C [Example 198, 5-chloro-2-(N-((1S,2R)-2-(6-fluoro-2,3-dimethylphenyl)-1-(5-oxo-4,5-dihydro-1,3,4-oxadiazol-2-yl)propyl)sulfamoyl)-4-(2-hydroxypropan-2-yl)benzamide]"
20,810,"COc1c(S(=O)(=O)N[C@H](c2n[nH]c(=O)o2)[C@H](C)c2cccc(C)c2C)ccc(Cl)c1C(C)O (stereo partly drawn) [Example 203, 4-chloro-N-((1S,2R)-2-(2,3-dimethylphenyl)-1-(5-oxo-4,5-dihydro-1,3,4-oxadiazol-2-yl)propyl)-3-(1-hydroxyethyl)-2-methoxybenzenesulfonamide]"
21,150,"COc1c(S(=O)(=O)N[C@H](c2n[nH]c(=O)o2)[C@H](C)c2c(F)ccc(C)c2C)ccc(Cl)c1C(C)O (stereo partly drawn) [Example 204, 4-chloro-N-((1S,2R)-2-(6-fluoro-2,3-dimethylphenyl)-1-(5-oxo-4,5-dihydro-1,3,4-oxadiazol-2-yl)propyl)-3-(1-hydroxyethyl)-2-methoxybenzenesulfonamide]"
22,250,"COc1c(S(=O)(=O)N[C@H](c2n[nH]c(=O)o2)[C@H](C)c2c(F)ccc3ccccc23)ccc(Cl)c1C(C)O (stereo partly drawn) [Example 205, 4-chloro-N-((1S,2R)-2-(2-fluoronaphthalene-1-yl)-1-(5-oxo-4,5-dihydro-1,3,4-oxadiazol-2-yl)propyl)-3-(1-hydroxyethyl)-2-methoxybenzenesulfonamide]"

row,SMILES,IC50 [nM]
1,"Cc1ccc(F)c([C@@H](C)[C@H](NS(=O)(=O)c2ccc(Cl)c(C(=O)N3C4CCC3COC4)n2)c2n[nH]c(=O)o2)c1C [Example 116, 6-(3-oxa-8-azabicyclo[3.2.1]octane-8-carbonyl)-5-chloro-N-((1S,2R)-2-(6-fluoro-2,3-dimethylphenyl)-1-(5-oxo-4,5-dihydro-1,3,4-oxadiazol-2-yl)propyl)pyridine-2-sulfonamide]",320
